Laboratory results: US20240124417A1, “COMPOUNDS USEFUL AS IMMUNOMODULATORS” (Bristol-Myers Squibb Company, priority 2019, published 2024)

Biological target: T1, PD-1/PD-L1 (Homo sapiens, UniProt Q9NZQ7)
T1 construct: TVMV protease site linker (C); made in house; host or cells: HEK293T cells
Assay: PD-1/PD-L1 Homogenous Time-Resolved Fluorescence (HTRF) binding assay
Settings: PD-L1-His 10 nM, PD-1-Ig 20 nM
Method in brief: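 Inhibitors pre-incubated 15 min with PD-L1-His extracellular domain (10 nM final) in dPBS with 0.1% BSA and 0.05% Tween-20, then PD-1-Ig (20 nM final) added for a further 15 min. Read-out by HTRF with europium cryptate anti-Ig (1 nM) and APC anti-His (20 nM). Related pairs: PD-1-Ig/PD-L2-His (20/5 nM), CD80-His/PD-L1-Ig (100/10 nM).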

T1 sequence (Q9NZQ7 18-239): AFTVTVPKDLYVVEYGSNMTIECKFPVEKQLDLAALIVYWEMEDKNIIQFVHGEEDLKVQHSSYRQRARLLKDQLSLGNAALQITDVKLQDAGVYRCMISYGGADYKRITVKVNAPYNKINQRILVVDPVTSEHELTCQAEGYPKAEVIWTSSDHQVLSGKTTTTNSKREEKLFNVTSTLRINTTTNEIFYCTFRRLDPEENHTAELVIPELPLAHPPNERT

IC50 [nM]	Compound
11.9	Cc1nc(CN(C)Cc2cc(Cl)c(OCc3cccc(-c4cccc(OCCCN5CC[C@@H](O)C5)c4C)c3C)cc2OCc2cncc(C#N)c2)no1 [Example 2545, (R)-5-((4-chloro-5-((3′-(3-(3-hydroxypyrrolidin-1-yl)propoxy)-2,2′-dimethyl-[1,1′-biphenyl]-3-yl)methoxy)-2-((methyl((5-methyl-1,2,4-oxadiazol-3-yl)methyl)amino)methyl)phenoxy)methyl)nicotinonitrile]
2.7	Cc1c(COc2cc(OCc3cncc(C#N)c3)c(CN(C)Cc3cnco3)cc2Cl)cccc1-c1cccc(OCCCN2CC[C@@H](O)C2)c1C [Example 2551, (R)-5-((4-chloro-5-((3′-(3-(3-hydroxypyrrolidin-1-yl)propoxy)-2,2′-dimethyl-[1,1′-biphenyl]-3-yl)methoxy)-2-((methyl(oxazol-5-ylmethyl)amino)methyl)phenoxy)methyl)nicotinonitrile]
33.2	Cc1c(COc2cc(OCc3cncc(C#N)c3)c(CNCc3nc4ccccc4s3)cc2Cl)cccc1-c1cccc(OCCCN2CC[C@@H](O)C2)c1C [Example 2549, (R)-5-((2-(((benzo[d]thiazol-2-ylmethyl)amino)methyl)-4-chloro-5-((3′-(3-(3-hydroxypyrrolidin-1-yl)propoxy)-2,2′-dimethyl-[1,1′-biphenyl]-3-yl)methoxy)phenoxy)methyl)nicotinonitrile]

Continued, compound first:

Compound	IC50 [nM]
Cc1[nH]cnc1COc1cc(OCc2cccc(-c3cccc(OCCCN4CC[C@@H](O)C4)c3C)c2C)c(Cl)cc1CNCc1ccnc(C#N)n1 [Example 2042, (R)-4-(((5-chloro-4-((3′-(3-(3-hydroxypyrrolidin-1-yl)propoxy)-2,2′-dimethyl-[1,1′-biphenyl]-3-yl)methoxy)-2-((5-methyl-1H-imidazol-4-yl)methoxy)benzyl)amino)methyl)pyrimidine-2-carbonitrile]	89.5
Cc1c(COc2cc(OCc3cncc(C#N)c3)c(CN(C)Cc3cn[nH]c3)cc2Cl)cccc1-c1cccc(OCC2CCCN(C)C2)c1Cl (stereo not drawn) [Example 2581, 5-((2-((((1H-pyrazol-4-yl)methyl)(methyl)amino)methyl)-4-chloro-5-((2′-chloro-2-methyl-3′-((1-methylpiperidin-3-yl)methoxy)-[1,1′-biphenyl]-3-yl)methoxy)phenoxy)methyl)nicotinonitrile]	3.4
Cc1c(COc2cc(OCc3cncc(C#N)c3)c(CNCCc3cc[nH]n3)cc2Cl)cccc1-c1cccc(OCC2CCCN(C)C2)c1Cl (stereo not drawn) [Example 2582, 5-((2-(((2-(1H-pyrazol-3-yl)ethyl)amino)methyl)-4-chloro-5-((2′-chloro-2-methyl-3′-((1-methylpiperidin-3-yl)methoxy)-[1,1′-biphenyl]-3-yl)methoxy)phenoxy)methyl)nicotinonitrile]	3.7
Cc1c(COc2cc(OCc3cncc(C#N)c3)c(CN(C)Cc3cnc[nH]3)cc2Cl)cccc1-c1cccc(OC2CCN(C)CC2)c1Cl [Example 2049, 5-((2-((((1H-imidazol-5-yl)methyl)(methyl)amino)methyl)-4-chloro-5-((2′-chloro-2-methyl-3′-((1-methylpiperidin-4-yl)oxy)-[1,1′-biphenyl]-3-yl)methoxy)phenoxy)methyl)nicotinonitrile]	1.6
Cc1c(COc2cc(OCc3cncc(C#N)c3)c(CNCCc3nc4ccccc4[nH]3)cc2Cl)cccc1-c1cccc(OCC2CCCN(C)C2)c1Cl (stereo not drawn) [Example 2593, 5-((2-(((2-(1H-benzo[d]imidazol-2-yl)ethyl)amino)methyl)-4-chloro-5-((2′-chloro-2-methyl-3′-((1-methylpiperidin-3-yl)methoxy)-[1,1′-biphenyl]-3-yl)methoxy)phenoxy)methyl)nicotinonitrile]	3
Cc1noc(C)c1CNCc1cc(Cl)c(OCc2cccc(-c3cccc(OCC4CCCN(C)C4)c3Cl)c2C)cc1OCc1cncc(C#N)c1 (stereo not drawn) [Example 2597, 5-((4-chloro-5-((2′-chloro-2-methyl-3′-((1-methylpiperidin-3-yl)methoxy)-[1,1′-biphenyl]-3-yl)methoxy)-2-((((3,5-dimethylisoxazol-4-yl)methyl)amino)methyl)phenoxy)methyl)nicotinonitrile]	2.9
